Test results published in the supplement of paper PMC10307832.

Columns and labels:
Assay in all cases: relative viability (nuclei count vs DMSO), 5 days (fraction); higher = more cells survive
Metformin + Dasatinib = compound: CN(C)C(=N)NC(=N)N [Metformin] + Cc1nc(Nc2ncc(C(=O)Nc3c(C)cccc3Cl)s2)cc(N2CCN(CCO)CC2)n1 [Dasatinib] (partner 0.075 µM)
Summary of the method: (§1)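 Medians of duplicate plates are given as relative viability. That measure is the nuclei count in treated wells divided by the count in vehicle wells. Counts were taken on 4× images of lung cancer cell lines in 1536-well plates, 5 days after pin-tool dosing the day after seeding with one drug alone or a fixed anchor-drug dose plus five library-drug doses (not always all listed) in √10 steps.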

Apatinib + Trametinib = compound: N#CC1(c2ccc(NC(=O)c3cccnc3NCc3ccncc3)cc2)CCCC1 [Apatinib] + CC(=O)Nc1cccc(-n2c(=O)n(C3CC3)c(=O)c3c(Nc4ccc(I)cc4F)n(C)c(=O)c(C)c32)c1 [Trametinib] (partner 0.02 µM)
Summary of the method: as §1

Apatinib + Pictilisib = compound: N#CC1(c2ccc(NC(=O)c3cccnc3NCc3ccncc3)cc2)CCCC1 [Apatinib] + CS(=O)(=O)N1CCN(Cc2cc3nc(-c4cccc5[nH]ncc45)nc(N4CCOCC4)c3s2)CC1 [Pictilisib] (partner 1 µM)
Summary of the method: as §1

Apatinib + Foretinib = compound: N#CC1(c2ccc(NC(=O)c3cccnc3NCc3ccncc3)cc2)CCCC1 [Apatinib] + COc1cc2c(Oc3ccc(NC(=O)C4(C(=O)Nc5ccc(F)cc5)CC4)cc3F)ccnc2cc1OCCCN1CCOCC1 [Foretinib] (partner 0.25 µM)
Summary of the method: as §1

Cell Line | relative viability (Metformin + Dasatinib; first compound 10 µM) | relative viability (Metformin + Dasatinib; first compound 31.62 µM) | relative viability (Metformin + Dasatinib; first compound 100 µM) | relative viability (Metformin + Dasatinib; first compound 316.23 µM) | relative viability (Metformin + Dasatinib; first compound 1000 µM) | relative viability (Apatinib + Trametinib; first compound 0.253 µM) | relative viability (Apatinib + Trametinib; first compound 0.8 µM) | relative viability (Apatinib + Trametinib; first compound 2.53 µM) | relative viability (Apatinib + Trametinib; first compound 8 µM) | relative viability (Apatinib + Pictilisib; first compound 0.08 µM) | relative viability (Apatinib + Pictilisib; first compound 0.253 µM) | relative viability (Apatinib + Pictilisib; first compound 0.8 µM) | relative viability (Apatinib + Pictilisib; first compound 2.53 µM) | relative viability (Apatinib + Pictilisib; first compound 8 µM) | relative viability (Apatinib + Foretinib; first compound 0.08 µM) | relative viability (Apatinib + Foretinib; first compound 0.253 µM) | relative viability (Apatinib + Foretinib; first compound 0.8 µM) | relative viability (Apatinib + Foretinib; first compound 2.53 µM) | relative viability (Apatinib + Foretinib; first compound 8 µM) | relative viability (Apatinib + Trametinib; first compound 0.08 µM)
PC-3 [JPC-3] | 0.944 | 0.889 | 0.979 | 0.886 | 0.986 | 0.786 | 0.553 | 0.646 | 0.654 | 0.781 | 0.741 | 0.594 | 0.605 | 0.683 | 1.02 | 1 | 0.986 | 0.925 | 0.853 | 
NCI-H661 |  | 0.895 | 0.995 | 0.828 | 0.893 | 0.594 | 0.571 | 0.532 | 0.463 | 0.273 | 0.393 | 0.461 | 0.381 | 0.367 | 1 | 0.93 | 1.04 | 1.02 | 0.941 | 0.606
NCI-H441 |  | 0.577 | 0.609 | 0.385 | 0.544 | 0.46 | 0.434 | 0.442 | 0.503 | 0.583 | 0.566 | 0.51 | 0.408 | 0.32 | 0.872 | 1.14 | 0.79 | 0.904 | 0.732 | 0.52
LCLC-97TM1 | 0.739 | 0.734 | 0.591 | 0.529 | 0.725 | 0.221 | 0.179 | 0.231 | 0.182 | 0.221 | 0.147 | 0.216 | 0.316 | 0.143 | 0.907 | 0.882 | 0.944 | 0.959 | 0.584 | 0.221
RERF-LC-KJ | 0.689 | 0.709 | 0.613 | 0.462 | 0.534 | 0.849 | 0.891 | 0.758 | 0.711 | 0.591 | 0.701 | 0.438 | 0.469 | 0.462 | 0.875 | 0.931 | 0.857 | 0.737 | 0.733 | 0.89
NCI-H2170 | 0.514 | 0.625 | 0.619 | 0.664 | 0.634 | 0.881 | 0.857 | 0.822 | 0.737 | 0.329 | 0.301 | 0.304 | 0.306 | 0.315 | 1.04 | 0.958 | 0.978 | 0.983 | 0.846 | 0.942
NCI-H1793 | 0.38 |  | 0.42 | 0.342 | 0.515 | 0.449 | 0.443 | 0.34 | 0.301 | 0.277 | 0.23 | 0.391 | 0.256 | 0.342 | 0.761 | 0.585 | 0.507 | 0.601 | 0.475 | 0.432
NCI-H2405 | 0.272 | 0.265 | 0.253 | 0.272 | 0.255 | 0.625 | 0.599 | 0.527 | 0.44 | 0.343 | 0.458 | 0.439 | 0.402 | 0.35 | 1.15 | 1.02 | 1.09 | 0.998 | 1.09 | 0.594
UMC-11 | 0.528 | 0.482 | 0.546 | 0.447 | 0.45 | 0.686 | 0.631 | 0.668 | 0.647 | 0.878 | 0.731 | 0.688 | 0.76 | 0.686 | 1.04 | 1.09 | 0.935 | 0.939 | 1.03 | 0.816
NCI-H727 | 0.399 | 0.451 | 0.478 |  | 0.49 |  | 0.386 | 0.416 | 0.342 | 0.328 | 0.306 | 0.358 | 0.364 | 0.367 | 1.02 | 0.676 | 0.937 | 0.835 | 0.912 | 0.386
NCI-H650 | 0.466 | 0.438 | 0.339 | 0.502 | 0.332 | 0.918 | 1.02 | 0.963 | 1.02 | 0.963 | 0.878 | 0.847 | 0.678 | 0.654 | 1.05 | 1.05 | 1.02 | 0.871 | 0.806 | 0.98
NCI-H838 | 0.271 | 0.254 | 0.356 | 0.241 | 0.348 | 0.573 | 0.473 | 0.49 | 0.467 | 0.533 | 0.462 | 0.41 | 0.469 | 0.451 | 1.14 | 1.18 | 0.997 | 0.946 | 0.986 | 0.626
SK-LU-1 | 0.171 | 0.192 | 0.174 | 0.17 | 0.177 | 0.541 | 0.545 | 0.495 | 0.446 | 0.786 | 0.637 | 0.564 | 0.557 | 0.453 | 1.01 | 0.857 | 0.859 | 0.719 | 0.732 | 0.498
SW 1573 | 0.589 | 0.833 | 0.708 | 0.425 | 0.551 | 0.729 | 0.543 | 0.603 | 0.352 | 0.588 | 0.476 | 0.548 | 0.517 | 0.535 | 0.981 | 1.07 | 0.963 | 0.854 | 0.821 | 0.554
LK-2 | 0.447 | 0.424 | 0.381 | 0.383 | 0.558 | 0.671 | 0.75 | 0.793 | 0.395 | 0.532 | 0.511 | 0.484 | 0.326 | 0.428 | 1.37 | 1.13 | 1.13 | 1.1 | 0.645 | 0.605
NCI-H1993 | 0.764 | 0.59 | 0.665 | 0.639 | 0.703 | 0.579 | 0.538 | 0.493 | 0.461 | 0.874 | 0.828 | 0.803 | 0.731 | 0.817 | 0.85 | 0.766 | 0.808 | 0.702 | 0.687 | 0.436
